Reference: US20160158309A1, “EXERCISE FUNCTION ENHANCER” (KOHJIN LIFE SCIENCES CO., LTD., priority 2014, published 2016)
“Also recorded” adds a separate entry of the source.

Key:
[1] = Muscle tissue pH after treadmill exercise in mice; type: in vivo, ICR mice; conditions: exercise group vs control exercise group; oral once a day for two weeks, 2.0% solution 5 μl/g body weight; treadmill 30 minutes at 25 m/min; tibialis anterior and gastrocnemis muscle
Method: After anesthetic, intermuscular pH of the tibialis anterior muscle and the gastrocnemis muscle was measured using a micro-glass electrode (CMN-141, Chemical Instruments).
The experiment was conducted using 7-week-old male ICR mice (Shimizu Laboratory Supplies). After one week of preliminary care, the mice were separated into two groups based on body weight: a glutathione group (n=21) and a control group (n=21). Glutathione (KOHJIN Life Sciences Co., Ltd.) was prepared in a 2.0% solution and was administered orally once a day for two weeks to the glutathione group at a dose of 5 μl/g of body weight. The same amount of distilled water was administered orally to the control group for the same period of time. […] On the final day, the groups were further divided into a control sedentary group (n=13), a control exercise group (n=8), a glutathione sedentary group (n=13), and a glutathione exercise group (n=8). The exercise groups were given the task of running on a treadmill, after which all groups were dissected.
The exercise task employed a treadmill (MK680, Muromachi Kikai). On the day of the exercise task, the sedentary groups were dissected without performing the exercise task, while the exercise groups were given the task of running on a treadmill for 30 minutes at a speed of 25 m/min, then were dissected immediately after completing the exercise task.
All of the data was plotted with the mean value±standard error. After performing a two-way analysis of variance in comparing the four groups, a multiple comparison test (Bonferroni) was performed. Student's t-distribution test was performed when comparing two groups. Level of significance was defined at 5%.

PGC-1α = PGC-1α amount in soleus muscle by western blot; type: in vivo, ICR mice; conditions: treated vs control groups; oral once a day for two weeks, 2.0% solution 5 μl/g body weight; sedentary group soleus muscle
Method: An amount of PGC-1α in the muscles was measured using a western blot test. Soleus muscle of a sedentary group was homogenized and protein concentration was measured using the BCA method (BCA™ Protein Assay Kit, Thermo [sequence]). The prepared protein sample was poured into 10% gel (Wako), was separated by electrophoresis, and was transferred to a membrane using a transfer device (iBlot, Invitrogen). After 30 minutes of blocking (EzBlokChemi, ATTO CORPORATION), the sample was cleaned three times for five minutes each in Tris buffered saline-(BIO-RAD Laboratories) Tween 20 (Wako) (TBST), and was reacted with a primary antibody using an anti-PGC-1α antibody (CHEMICON International) for 60 minutes at room temperature. The sample was then cleaned three times for five minutes each in TBST and was reacted with a secondary antibody using anti-rabbit antibody (GE Healthcare) for 60 minutes at room temperature. The sample was then cleaned three times for five minutes each in TBST and was reacted with a coloring agent (ECL plus, GE Healthcare) for four minutes. Using an image analysis device (ImageQuant LAS 4000, GE Healthcare), bands were detected and converted to numerical values. Thereafter, a relative ratio with respect to a control set was calculated.
The experiment was conducted using 7-week-old male ICR mice (Shimizu Laboratory Supplies). After one week of preliminary care, the mice were separated into two groups based on body weight: a glutathione group (n=21) and a control group (n=21). […] The same amount of distilled water was administered orally to the control group for the same period of time. A twelve-hour light/dark cycle was maintained in the enclosure and the mice were able to freely take food and water from a plastic gauge. On the final day, the groups were further divided into a control sedentary group (n=13), a control exercise group (n=8), a glutathione sedentary group (n=13), and a glutathione exercise group (n=8). The exercise groups were given the task of running on a treadmill, after which all groups were dissected. […]

Compound	Muscle tissue pH [1]	PGC-1α expression in the soleus muscles (relative ratio to control) (PGC-1α)
N[C@@H](CCC(=O)N[C@@H](CS)C(=O)NCC(=O)O)C(=O)O [glutathione, γ-L-Glu-L-Cys-Gly]	significantly higher value; also recorded: no reduction in muscle tissue pH was observed	significantly higher value; also recorded: an increase in PGC-1α expression
O=C1O[C@H]([C@@H](O)CO)C(O)=C1O [vitamin C]	not observed	not observed
